Reference: patent publication US20240238305A1, “FORMULATIONS OF 3-((3-(4-(2-(ISOBUTYLSULFONYL)PHENOXY)-3-(TRIFLUOROMETHYL)PHENYL)-1,2,4-OXADIAZOL-5-YL)METHYL)-5,5-DIMETHYL-1-(2-MORPHOLINOETHYL)IMIDAZOLIDINE-2,4-DIONE” (Novartis AG, priority 2021, published 2024)

How the values were obtained:
SCD1 = test: Measurement of SCD1 expression in SZ95-SCD1-HiBit cells (HiBiT assay); assay type: cell-based, human
Protocol: SCD1 expression levels in SZ95 cells were quantitated using the HiBiT system (Promega) in which a small peptide sequence (SmBiT) with a larger protein (LgBiT) reconstitutes luciferase activity and can generate a luminescent signal used for quantitation. […] The gRNA targeting sequence used was […] (SEQ ID NO: 3) and the SCD1 insertion oligonucleotide encoding the SmBiT sequence was:
SZ95-SCD1-HiBit cells were seeded in 384-well cell culture white plates at a density of 3000 cells/[…]. Water was added to edge wells to avoid evaporation. Cells were incubated in a humidified incubator with 5% CO2 at 37° C. overnight. Tested compounds were diluted at a ratio of 1:3 in DMSO using an Agilent BRAVO Automated Liquid Handling Platform and, after further serial dilutions, added to cells at final concentrations starting from 18 μM. 2-(3-(3-((2-chloro-3-(trifluoromethyl)benzyl)(2,2-diphenylethyl)amino)propoxy)phenyl)acetic acid was used as a reference compound in each plate. Cells in the assay plate were incubated in a humidified incubator with 5% CO2 at 37° C. for 48h.
The assay plates were removed from the incubator and allowed to equilibrate to room temperature. […] Plates were placed on an orbital shaker at a speed of 300-600 rpm for 10 min at room temperature, and read on an EnVision Plate Reader using luminescence detection with a 1 second read time. […]

SZ95 sebocytes = test: Sentinel Lipid Assay (SLA), global desaturation index; assay type: cell-based, human
Protocol: The sentinel lipid assay was used quantify the change in the global desaturation index in SZ95 sebocytes upon administration of Compound 1. The assay measures a smaller subset of lipid analytes in meibum (termed “sentinel lipids”) which would model the global changes the population of both saturated and desaturated lipids in the cells. In order to define this smaller subset of lipids, a complete lipid profile was recorded on dose response curves (eight levels from 4 nM to 10 uM) of Compound 1. […]
A medium throughput assay was created using this reduced set of sentinel lipids. […] Lipids were extracted from the cells using a 1:1 mixture of methylene chloride/methanol containing 10 nM of deuterated standards of triglycerides, which are used as internal standards for quantitating the lipid abundance. […] The abundance of the sentinel lipids and the internal standards are measured using multiple reaction monitor mode (MRM) on a triple quadrupole mass spectrometer. […] In order to compare compounds from multiple batches with one another, the measure raw desaturation index was normalized by dividing it by the desaturation index of the DMSO dosed cells, and all data was assessed as the fraction by which the compound increases the desaturation index above 1. […]

[1] = normalized to reference compound Amax of 100%

**Q.** Which “HiBit Amax” value (SCD1; SZ95-SCD1-HiBit cells, 48h, compared to reference compound) does the source give for `O=C(O)Cc1cccc(OCCCN(Cc2cccc(C(F)(F)F)c2Cl)CC(c2ccccc2)c2ccccc2)c1` [Reference, 2-(3-(3-((2-chloro-3-(trifluoromethyl)benzyl)(2,2-diphenylethyl)amino)propoxy)phenyl)acetic acid] here?
**A.** 95.1

**Q.** And the “HiBit Normalized Amax” value (SCD1; [1])?
**A.** 100.0%

**Q.** What about the “SLA Amax” value (SZ95 sebocytes; SZ95 cells, 72h, compared to reference compound) of the same molecule?
**A.** 96.0

**Q.** What about the “SLA Normalized Amax” value (SZ95 sebocytes; [1]) of the same molecule?
**A.** 100.0%
